# According to patent US9981928B2, “Aryl sulfide derivatives and aryl sulfoxide derivatives as acaricides and insecticides” (BAYER CROPSCIENCE AKTIENGESELLSCHAFT, priority 2013, dated 2018):
# Where two headings read alike, the source gives them in different places.
# Assay: log P determination by HPLC on reversed-phase columns (C 18), analogously to OECD Guideline 117
# Type: physicochemical
# Conditions: for logP (HCOOH): LC-MS in the acidic range, pH 2.7, 0.1% aqueous formic acid / acetonitrile; for logP (HCOOH) / logP (neutral): HPLC reversed-phase C 18; for logP (neutral): LC-MS in the neutral range, pH 7.8, 0.001 molar aqueous ammonium hydrogencarbonate / acetonitrile
# Protocol: The log P values were determined analogously to OECD Guideline 117 (EC Directive 92/69/EEC) by HPLC (high-performance liquid chromatography) using reversed-phase columns (C 18), by the following methods:
# [a] The LC-MS determination in the acidic range was effected at pH 2.7 with 0.1% aqueous formic acid and acetonitrile (contains 0.1% formic acid) as eluents; linear gradient from 10% acetonitrile to 95% acetonitrile. log P^[a] is also referred to as log P(HCOOH). [b] LC-MS determination in the neutral range was effected at pH 7.8 with 0.001 molar aqueous ammonium hydrogencarbonate solution and acetonitrile as eluents; linear gradient from 10% acetonitrile to 95% acetonitrile. log P^[…] is also referred to as log P(neutral).
# [1] = reversed-phase C18 HPLC column, acidic range, pH 2.7, 0.1% aqueous formic acid and acetonitrile, read-out: log P[a] / log P(HCOOH)
# [2] = reversed-phase C18 HPLC column, neutral range, pH 7.8, 0.001 molar aqueous ammonium hydrogencarbonate and acetonitrile, read-out: log P[b] / log P(neutral)
chromatographic logP [1],chromatographic logP [2],SMILES,other results
1.79,–,"Cc1cc(F)c(N2C(=O)OCC2C)cc1[S+]([O-])CC(F)(F)F (stereo not drawn) [Example 107, 3-[2-Fluoro-4-methyl-5-(2,2,2-trifluoroethylsulfinyl)phenyl]-4-methyloxazolidin-2-one]",–
3.24,3.18,"Cc1cc(F)c(-n2c(=S)n(C3CC3)c(=O)n2C)cc1SCC(F)(F)F [4-cyclopropyl-1-{2-fluoro-4-methyl-5-[(2,2,2-trifluoroethyl)sulfanyl]phenyl}-2-methyl-5-thioxo-1,2,4-triazolidin-3-one]",–
1.51,1.52,"Cc1cc(C)c([S+]([O-])CC(F)(F)F)cc1N1CCNC1=O (stereo not drawn) [Example 4, 1-{2,4-Dimethyl-5-[(2,2,2-trifluoroethyl)sulfinyl]phenyl}imidazolidin-2-one]",–

# The next lines start with the compound.
SMILES,chromatographic logP [1],chromatographic logP [2],other results
"Fc1cc(Cl)c(SCC(F)(F)F)cc1Br [VIIa-2, 1-Bromo-4-chloro-2-fluoro-5-[(2,2,2-trifluoroethyl)sulfanyl]benzene]",4.28,4.29,–
"CC(C)Cn1[nH]c(=O)n(C2CC2)c1=O [drawing 120 R1=CH2CH(CH3)2 R10=cyclopropyl, 4-cyclopropyl-1-isobutyl-1,2,4-triazolidine-3,5-dione]",0.94,–,–
"Cc1cc(C)c(B2OC(C)(C)C(C)(C)O2)cc1SCC(F)(F)F [2-{2,4-Dimethyl-5-[(2,2,2-trifluoroethyl)sulfanyl]phenyl}-4,4,5,5-tetramethyl-1,3,2-dioxaborolane]",5.75,5.64,–
"CC1(C)OB(c2ccc(Cl)c(SCC(F)(F)F)c2)OC1(C)C [2-{4-Chloro-3-[(2,2,2-trifluoroethyl)sulfanyl]phenyl}-4,4,5,5-tetramethyl-1,3,2-dioxaborolane]",5.27,5.16,–
Cc1cc(F)c(N2C(=O)C(=O)N(C3CC3)C2=O)cc1SCC(F)(F)F [Example 102],–,–,logP (HCOOH): 3.24
"Fc1cc(F)c(SCC(F)(F)F)cc1Br [VIIa-15, 1-Bromo-2,4-difluoro-5-[(2,2,2-trifluoroethyl)sulfanyl]benzene]",3.89,3.86,–
"CCOC(=O)NNC(=O)Nc1cc(SCC(F)(F)F)c(C)cc1F [Ethyl 2-({2-fluoro-4-methyl-5-[(2,2,2-trifluoroethyl)sulfanyl]phenyl}carbamoyl)hydrazinecarboxylate]",–,–,"chromatographic logP (acidic range, pH 2.7, 0.1% aqueous formic acid and acetonitrile, read-out: log P[a] / log P(HCOOH)): 2.41"
Cc1cc(F)c(-n2c(=O)n(C(C)C)c(=O)n2C(C)(C)C)cc1[S+]([O-])CC(F)(F)F (racemic) [Example 152],–,–,logP (HCOOH): 3.40; logP (neutral): 3.35
Cc1cc(F)c(-n2c(=O)n(C(C)(C)C)c(=O)n2C)cc1[S+]([O-])CC(F)(F)F (stereo not drawn) [Example 95],–,–,logP (HCOOH): 2.69; logP (neutral): 2.65
"[O-][S+](CC(F)(F)F)c1cc(B(O)O)ccc1Cl (stereo not drawn) [VIIIb-3, {4-Chloro-3-[(2,2,2-trifluoroethyl)sulfinyl]phenyl}boronic acid]",1.74,1.68,–
"COc1n[nH]c(=O)n1C1CC1 [drawing 121 R1=CH3 R10=cyclopropyl, 4-cyclopropyl-5-methoxy-2,4-dihydro-3H-1,2,4-triazol-3-one]",0.27,0.31,–
"CCn1[nH]c(=O)n(-c2ccccc2)c1=O [1-Ethyl-4-phenyl-1,2,4-triazolidine-3,5-dione]",0.91,–,–
"Cn1c(OCc2ccccc2Cl)n[nH]c1=O [drawing 121 R1=2-chlorobenzyl R10=CH3, 5-[(2-chlorobenzyl)oxy]-4-methyl-2,4-dihydro-3H-1,2,4-triazol-3-one]",1.66,1.63,–
Cc1cc(F)c(-n2c(=O)n(C(C)C)c(=O)n2CC(F)(F)F)cc1[S+]([O-])CC(F)(F)F (racemic) [Example 153],–,–,logP (HCOOH): 2.95; logP (neutral): 3.04
"Cn1[nH]c(=O)n(-c2cccc(C(F)(F)F)c2)c1=O [1-methyl-4-[3-(trifluoromethyl)phenyl]-1,2,4-triazolidine-3,5-dione]",1.53,–,–
